Key:
[1] = tested on: peroxynitrite generation in kidney mitochondria; assay: Linoleic acid-induced peroxynitrite generation in kidney mitochondria; assay type: in vivo, mouse; settings: db/db-HF-D; did not reach statistical significance; FIG. 4F
Protocol: (§1) Kidney mitochondria were prepared from db/+ or db/db mice and LA-induced [Ca^2+]m and peroxynitrite were assessed as previously described.

hsp90β1 [2] = biological target: T1, hsp90β1 (Mus musculus, UniProt P08113); assay: Western blot of hsp90β1 in kidney homogenate and isolated kidney mitochondria; assay type: in vivo; settings: db/db-HF-D vs db/db-HF-S, daily injection
T1 construct: We measured the effect of daily 17-DMAG injection on hsp90β1 levels in the kidney of db/db-HF mice; from tissue; host or cells: kidney homogenate and isolated kidney mitochondria of HF-fed db/db mice
T1 sequence (P08113 22-802): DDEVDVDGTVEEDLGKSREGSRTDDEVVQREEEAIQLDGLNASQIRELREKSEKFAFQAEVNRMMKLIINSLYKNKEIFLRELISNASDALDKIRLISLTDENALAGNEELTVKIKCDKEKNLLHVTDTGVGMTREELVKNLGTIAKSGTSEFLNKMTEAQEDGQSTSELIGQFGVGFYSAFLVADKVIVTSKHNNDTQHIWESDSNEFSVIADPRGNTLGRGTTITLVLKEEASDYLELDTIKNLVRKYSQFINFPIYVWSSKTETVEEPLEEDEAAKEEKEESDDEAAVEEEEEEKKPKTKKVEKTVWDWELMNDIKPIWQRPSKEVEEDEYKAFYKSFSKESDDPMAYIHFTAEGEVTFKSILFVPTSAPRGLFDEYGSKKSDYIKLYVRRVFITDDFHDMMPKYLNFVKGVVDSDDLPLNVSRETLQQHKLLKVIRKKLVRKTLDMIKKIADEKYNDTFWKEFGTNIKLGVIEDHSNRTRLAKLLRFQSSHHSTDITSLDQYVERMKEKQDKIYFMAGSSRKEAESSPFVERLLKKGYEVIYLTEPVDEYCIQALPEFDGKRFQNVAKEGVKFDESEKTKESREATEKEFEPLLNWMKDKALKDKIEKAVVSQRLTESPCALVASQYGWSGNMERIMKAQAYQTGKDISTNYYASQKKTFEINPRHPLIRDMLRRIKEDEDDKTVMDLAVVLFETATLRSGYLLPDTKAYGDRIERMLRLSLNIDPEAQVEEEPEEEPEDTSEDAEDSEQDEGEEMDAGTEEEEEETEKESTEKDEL
Protocol: (§2) Western blot or immunochemistry was performed with polyclonal (pAb) and/or monoclonal (mAb) primary antibodies to detect hsp90β1 and 3-NT levels as previously described. The primary antibodies used in western blots were as follows: mAb anti-3-NT (1:1000, clone 1A6, Millipore); rabbit pAb anti-3-NT (1:1000, Millipore); pAb anti-GRP94 (1:1000, Santa Cruz Biotechnology), mAb anti-Complex 1 (1:2000) and mAb anti-α-tubulin (1:1000). For the immunochemistry staining with mouse antibody, a specific procedure was performed as previously described to eliminate the direct interaction between antigen and secondary antibody.

[3] = tested on: db/db mice challenged with high fat diet (HF), ESRD model; assay: Kidney function of HF-fed db/db mice (24 h urinary albumin, urine output, serum creatinine); assay type: in vivo, mouse
From the text: (§3) Male db/db (BKS.Cg-m+/+Lepr^db/J), age and sex matched db/+ mice were acquired from Jackson Laboratories at age of 10 weeks and housed 4/cage or less. Animals were habitat for 2 weeks in a temperature- and humidity-controlled facility with a 12:12-h light-dark cycle, fed ad libitum with RD (7012 Teklad LM-485, Harlan Laboratories) and had free access to water.
(§4) The mice were challenged with HF (60.3% calories from fat, TD.06414, Harlan Laboratories) starting at 12 weeks of age as depicted in FIG. 1A. The HF challenge was divided into two phases: the first phase lasted 2 weeks followed by a 4-week RD feeding. The second phase of HF feeding followed the 4-week RD interval and continued to the end of the experiments (5 weeks). At the beginning of the second HF feeding, db/db mice were randomly divided into 2 groups and intraperitoneally injected with either Saline (vehicle, db/db-HF-S) or 17-DMAG (6.5 μg/Kg bodyweight, db/db-HF-D). The animal protocols were approved by the Institutional Animal Care and Use Committee (0707-001), UT Health Science Center at San Antonio.
Urine collection and other physical parameters were measured following the schedule in FIG. 1A. 24 h urine samples were collected from individual mice and urinary albumin concentration was determined using a murine albumin enzyme-linked immunosorbent assay (Albuwell M Kit; Exocell, Philadelphia, Pa.). Serum creatinine concentrations were determined by the Creatinine Companion kit (Exocell).

hsp90β1 [4] = biological target: hsp90β1 (Homo sapiens, UniProt P14625); settings: prolonged treatment of cells; cited from earlier work
Chain of hsp90β1 (Homo sapiens, UniProt P14625) (P14625 22-803): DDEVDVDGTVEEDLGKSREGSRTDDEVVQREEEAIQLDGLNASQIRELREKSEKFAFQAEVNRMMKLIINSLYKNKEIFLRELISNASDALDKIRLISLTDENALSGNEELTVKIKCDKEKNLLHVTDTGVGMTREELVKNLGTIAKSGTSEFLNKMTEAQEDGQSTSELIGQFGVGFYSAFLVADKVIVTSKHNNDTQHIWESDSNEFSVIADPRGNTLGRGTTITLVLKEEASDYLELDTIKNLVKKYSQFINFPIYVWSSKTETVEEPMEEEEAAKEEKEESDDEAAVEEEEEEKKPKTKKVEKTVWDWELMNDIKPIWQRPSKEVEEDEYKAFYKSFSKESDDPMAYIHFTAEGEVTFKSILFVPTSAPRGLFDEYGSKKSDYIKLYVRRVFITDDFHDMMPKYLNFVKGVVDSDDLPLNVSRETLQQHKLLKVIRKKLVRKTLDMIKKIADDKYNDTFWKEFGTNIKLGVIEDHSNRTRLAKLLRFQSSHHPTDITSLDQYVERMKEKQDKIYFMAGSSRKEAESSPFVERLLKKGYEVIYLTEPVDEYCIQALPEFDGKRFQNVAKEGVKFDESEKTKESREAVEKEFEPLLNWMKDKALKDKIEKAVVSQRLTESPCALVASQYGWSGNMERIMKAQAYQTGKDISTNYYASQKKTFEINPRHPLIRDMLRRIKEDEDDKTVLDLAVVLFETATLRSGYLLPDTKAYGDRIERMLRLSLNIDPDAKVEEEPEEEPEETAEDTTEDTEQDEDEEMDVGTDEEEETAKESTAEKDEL

[5] = tested on: polyunsaturated fatty acid-induced mitochondrial Ca2+ efflux (PIMCE); settings: applicant's previous studies, basis of the dose; cited from earlier work
[6] = tested on: kidney glomeruli and tubules of HF-fed db/db mice; assay: Kidney histopathology (HE, PAS, Masson's trichrome) of HF-fed mice; assay type: in vivo, mouse
From the text: as §3, §4
Formalin-fixed, paraffin-embedded kidney sections were stained with haematoxylin and eosin (HE), periodic acid-Schiff (PAS), or Masson's trichrome and analyzed to evaluate kidney damages in a blinded manner. The area of glomerular PAS staining was measured by image analysis using Image-Pro Plus 4.5 (Media Cybernetics, Silverspring, Md.). A semi-quantitative assessment was performed in HE stained slides to evaluate the extent of tubular damage and graded from 1 to 5 as follows: 1: vacuolation of cytoplasm in <20% of tubules; 2: vacuoles in 20% to 40% of tubules; 3: vacuoles in 40% to 60% tubules with minimal distortion of tubular structures; 4: vacuoles in 60% to 80% of tubules with large and marked distortion of tubular profiles, pyknotic nuclei, patches of tubular atrophy and tubular degeneration; and 5: >80% of tubules with severe vacuolation, or tubular atrophy and degeneration. The fractal collagen volume was assessed by point counter grid using ImageJ (NIH) program to quantify the blue stain in the trichrome-stained sections.

[7] = tested on: HF-fed db/db mice with ESRD; assay: Kaplan-Meyer survival analysis of HF-fed mice; assay type: in vivo, mouse
From the text: as §4
Results presented as mean±S.E and Student's t-test was used to evaluate the differences between two groups. Kaplan-Meyer survival analysis was performed using the log-rank statistic to test for a significant difference among the survival curves. Differences were considered statistically significant at P<0.05.

[8] = tested on: LA-induced [Ca2+]m efflux in kidney mitochondria; assay: Linoleic acid-induced [Ca2+]m efflux in kidney mitochondria; assay type: in vivo, mouse
Protocol: as §1

[9] = tested on: 3-nitrotyrosine (3-NT) in kidney; assay: 3-NT levels in kidney by western blot and immunochemistry; assay type: in vivo, mouse; settings: db/db-HF-D vs db/db-HF-S
Protocol: as §2

[10] = db/db-HF-D vs db/db-HF-S, FIG. 2G/2H

Substance: 17-dimethylaminoethylamino-17-demethoxygeldanamycin [17-DMAG]
- LA-induced peroxynitrite generation [1]: attenuated
- hsp90β1 levels in kidney homogenates (hsp90β1 [2]; FIG. 4A): similar
- hsp90β1 levels in isolated kidney mitochondria (hsp90β1 [2]; FIG. 4B): significantly reduced
- 24 h urine output ([3]; db/db-HF-D (6.5 μg/kg i.p. daily) vs db/db-HF-S, from 17th day of second HF feeding, FIG. 1E): significantly preserved
- 24 h urinary albumin excretion (albuminuria) ([3]; db/db-HF-D (6.5 μg/kg i.p. daily, second HF challenge) vs db/db-HF-S, FIG. 1D): significantly diminished
- serum creatinine, difference between db/db-HF-D and db/+ groups ([3]; db/db-HF-D, 6.5 μg/kg i.p. daily): no significant difference
- serum creatinine compared to db/db-HF-S group ([3]; db/db-HF-D, 6.5 μg/kg i.p. daily, FIG. 1F): significantly lowered
- degradation and downregulation of hsp90β1 (hsp90β1 [4]): caused degradation and downregulation
- inhibition on PIMCE [5]: maximal inhibition
- toxicity to cells [5]: did not produce apparent toxicity
- glomerular and tubular abnormalities in HF-fed db/+ mice ([6]; HF-fed db/+ mice treated with 17-DMAG, FIG. 2B): did not exhibit any glomerular and tubular abnormalities
- tubular vacuolation ([6]; db/db-HF-D group (also in db/db-HF-S)): evidenced
- segmental glomerulosclerosis (HE staining, 100×) ([6]; db/db-HF-D vs db/db-HF-S, FIG. 2C/2D): largely prevented
- tubular atrophy and degeneration (HE staining) ([6]; db/db-HF-D vs db/db-HF-S, FIG. 2E/2F): dramatic protection
- segmental glomerulosclerosis and mesangial matrix expansion (PAS, 200×), glomerular lesions [6, 10]: amiiorated
- tubulointerstitial fibrosis (PAS-stained tubulointerstitium) [6, 10]: largely prevented
- accumulation of tubulointerstitial collagen (Masson's trichrome) ([6]; db/db-HF-D vs db/db-HF-S, FIG. 2I/2J): effectively reduced
- tubular damage (index, morphometric quantification) ([6]; db/db-HF-D vs db/db-HF-S, FIG. 2K): significant alleviation
- mesangial matrix expansion (morphometric quantification) ([6]; db/db-HF-D vs db/db-HF-S, FIG. 2L): significant alleviation
- collagen accumulation (morphometric quantification) ([6]; db/db-HF-D vs db/db-HF-S, FIG. 2M): significant alleviation
- mortality in HF-fed db/+ mice ([7]; db/+-HF-S and db/+-HF-D groups): no mortality
- survival rate ([7]; db/db-HF-D vs db/db-HF-S, log-rank, FIG. 3): significantly improved
- rate and amplitude of LA-induced [Ca2+]m signal, difference between db/db-HF-D and db/+ groups ([8]; db/db-HF-D vs db/+): no significant differences
- LA-induced [Ca2+]m efflux in kidney mitochondria ([8]; db/db-HF-D vs db/db-HF-S, FIG. 4C-E): significantly diminished
- rate and amplitude of LA-induced [Ca2+]m responses ([8]; db/db-HF-D vs db/db-HF-S, FIG. 4D, 4E): effectively attenuated
- 3-NT in kidney sections by immunohistochemistry ([9]; FIG. 5C-E): effectively reduced
- 3-NT level, bands with MW<50kDa, western blot with polyclonal anti-3-NT antibody ([9]; kidney homogenates, FIG. 5A): significant 3-NT level reduction
- 3-NT levels in proteins <50 kDa, western blot with monoclonal antibody ([9]; kidney homogenates, FIG. 5B): significantly lowered

— patent US20130143855A1, “METHOD TO ALLEVIATE DIABETIC END STAGE RENAL DISEASE” (BOARD OF REGENTS OF THE UNIVERSITY OF TEXAS SYSTEM, priority 2010, published 2013)
